Laboratory results as given in ChEMBL document CHEMBL1201862, “PubChem BioAssay data set” (2004).
Active and inactive are the calls of the source. No stated cut-off is given here; in the data, actives have a measured IC50 and inactives only a lower limit.

Assays:
Type in all cases: functional
Caspase-3 = molecular target: T1, Caspase-3 (Homo sapiens, UniProt P42574);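 further: Dose-response selectivity test against caspase-3 for candidate inhibitors of sentrin-specific proteases (SENPs)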
T1 sequence (P42574 whole entry): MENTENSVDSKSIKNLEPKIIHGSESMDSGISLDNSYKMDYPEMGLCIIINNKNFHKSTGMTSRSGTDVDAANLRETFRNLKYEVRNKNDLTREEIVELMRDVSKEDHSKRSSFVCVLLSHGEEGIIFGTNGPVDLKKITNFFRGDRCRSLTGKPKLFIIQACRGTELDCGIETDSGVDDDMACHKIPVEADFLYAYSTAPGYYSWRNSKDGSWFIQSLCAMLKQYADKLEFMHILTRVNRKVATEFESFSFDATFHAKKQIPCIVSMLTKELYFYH

[1] = molecular target: T2, Sentrin-specific protease 8 (Homo sapiens, UniProt Q96LD8);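 further: luminescence read-out of SENP8 inhibition, dose-response confirmation following an ultra-high-throughput screen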
T2 sequence (Q96LD8 whole entry): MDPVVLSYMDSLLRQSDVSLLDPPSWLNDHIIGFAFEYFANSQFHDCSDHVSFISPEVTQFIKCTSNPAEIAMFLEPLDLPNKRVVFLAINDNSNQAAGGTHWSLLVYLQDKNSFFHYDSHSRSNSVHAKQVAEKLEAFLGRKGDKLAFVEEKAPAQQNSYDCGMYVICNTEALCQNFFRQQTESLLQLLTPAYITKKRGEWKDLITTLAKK

[2] = molecular target: T3, Sentrin-specific protease 6 (Homo sapiens, UniProt Q9GZR1);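 further: Luminescence-based dose-response confirmatory assay of SENP6 inhibition, following up an ultra-high-throughput screen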
T3 sequence (Q9GZR1 whole entry): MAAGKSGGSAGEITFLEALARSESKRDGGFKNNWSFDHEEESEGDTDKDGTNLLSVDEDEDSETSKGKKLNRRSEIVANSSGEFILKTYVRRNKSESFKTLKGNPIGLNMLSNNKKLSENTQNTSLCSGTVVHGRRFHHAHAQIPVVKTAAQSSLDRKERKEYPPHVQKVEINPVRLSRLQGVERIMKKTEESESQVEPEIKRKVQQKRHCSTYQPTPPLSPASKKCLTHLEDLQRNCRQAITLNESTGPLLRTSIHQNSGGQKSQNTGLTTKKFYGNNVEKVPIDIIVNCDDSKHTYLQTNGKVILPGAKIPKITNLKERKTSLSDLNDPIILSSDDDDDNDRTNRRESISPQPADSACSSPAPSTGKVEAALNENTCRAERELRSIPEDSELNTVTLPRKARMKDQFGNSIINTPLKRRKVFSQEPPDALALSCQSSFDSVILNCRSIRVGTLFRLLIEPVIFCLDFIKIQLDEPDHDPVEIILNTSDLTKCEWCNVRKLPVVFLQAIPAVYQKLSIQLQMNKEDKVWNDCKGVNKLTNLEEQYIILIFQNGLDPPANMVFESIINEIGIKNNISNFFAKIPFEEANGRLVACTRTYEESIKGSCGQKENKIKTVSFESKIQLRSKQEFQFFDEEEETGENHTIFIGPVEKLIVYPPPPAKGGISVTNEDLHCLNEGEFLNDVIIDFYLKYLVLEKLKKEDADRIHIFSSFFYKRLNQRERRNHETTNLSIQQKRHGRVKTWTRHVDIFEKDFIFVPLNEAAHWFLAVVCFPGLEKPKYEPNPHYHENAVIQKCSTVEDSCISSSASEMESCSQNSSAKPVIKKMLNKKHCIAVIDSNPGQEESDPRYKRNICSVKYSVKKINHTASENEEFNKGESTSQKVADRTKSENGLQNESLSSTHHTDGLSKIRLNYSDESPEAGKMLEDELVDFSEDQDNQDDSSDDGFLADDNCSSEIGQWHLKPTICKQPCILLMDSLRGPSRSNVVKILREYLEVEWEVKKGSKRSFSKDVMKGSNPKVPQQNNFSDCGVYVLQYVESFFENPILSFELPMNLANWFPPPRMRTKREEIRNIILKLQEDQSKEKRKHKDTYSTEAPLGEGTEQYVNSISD

[3] = molecular target: T4, Sentrin-specific protease 7 (Homo sapiens, UniProt Q9BQF6);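 further: Luminescence-based dose-response confirmation of ultra-high-throughput screening hits, measuring inhibition of SENP7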
T4 sequence (Q9BQF6 whole entry): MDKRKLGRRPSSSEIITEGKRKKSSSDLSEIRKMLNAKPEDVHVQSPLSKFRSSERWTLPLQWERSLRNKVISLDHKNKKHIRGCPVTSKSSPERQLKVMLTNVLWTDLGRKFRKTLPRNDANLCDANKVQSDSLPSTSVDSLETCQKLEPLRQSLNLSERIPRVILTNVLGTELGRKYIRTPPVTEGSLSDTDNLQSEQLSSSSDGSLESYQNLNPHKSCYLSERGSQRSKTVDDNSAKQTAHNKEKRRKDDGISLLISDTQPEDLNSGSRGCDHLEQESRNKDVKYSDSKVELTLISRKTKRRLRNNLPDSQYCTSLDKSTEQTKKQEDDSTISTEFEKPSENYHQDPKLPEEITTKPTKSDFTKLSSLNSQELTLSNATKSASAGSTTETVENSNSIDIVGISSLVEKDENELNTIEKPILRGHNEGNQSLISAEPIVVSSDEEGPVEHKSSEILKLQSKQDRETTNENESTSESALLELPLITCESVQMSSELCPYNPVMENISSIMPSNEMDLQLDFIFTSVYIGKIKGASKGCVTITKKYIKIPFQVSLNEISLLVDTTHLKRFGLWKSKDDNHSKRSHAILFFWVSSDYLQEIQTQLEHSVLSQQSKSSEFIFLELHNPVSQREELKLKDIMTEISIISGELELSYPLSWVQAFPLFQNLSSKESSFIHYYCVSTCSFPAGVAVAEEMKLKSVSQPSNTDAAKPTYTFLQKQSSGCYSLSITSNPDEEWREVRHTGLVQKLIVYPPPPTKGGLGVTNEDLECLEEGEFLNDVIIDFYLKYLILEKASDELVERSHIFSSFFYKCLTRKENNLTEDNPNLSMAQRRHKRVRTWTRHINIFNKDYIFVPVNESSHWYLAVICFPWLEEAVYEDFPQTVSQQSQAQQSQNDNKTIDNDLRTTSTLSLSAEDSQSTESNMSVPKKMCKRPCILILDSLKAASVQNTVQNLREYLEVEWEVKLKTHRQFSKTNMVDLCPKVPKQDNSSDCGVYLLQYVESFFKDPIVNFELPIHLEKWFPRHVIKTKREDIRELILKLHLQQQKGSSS

Measured: IC50

O=[N+]([O-])c1ccc(O)c(C2=NNC(c3ccccc3F)C2)c1 (stereo not drawn)
active: Caspase-3 68.6 µM | [1] 54.5 µM | [2] 43.5 µM | [3] 41.6 µM

Cc1oc2c(c1C(=O)N1CCC(C)CC1)C(=O)c1ccccc1C2=O
active: Caspase-3 10.2 µM | [1] 23.6 µM | [2] 13.7 µM | [3] 40.6 µM
